Read-outs that look alike come from different tables or passages of the source. Where a SMILES comes first, the peptide text is derived from it. Bridges are numbered along the chain shown (N, C = ends). Roman numbers before positions name the chains, in order.
Key:
[1] = CD spectra, secondary structure analysis; format: physicochemical; conditions: 200 μg/ml peptide
Protocol: Circular dichroism (CD) spectra of the six peptides (Hst5, P113, HHP1, di-PH2, di-WP2 and di-18Hc) were measured with a J-715 spectropolarimeter (Jasco, Tokyo, Japan). Two hundred micrograms of each peptide was resuspended in 1 ml of 10 mM NaPB (pH 7.0) (i) without other additives, (ii) with 10% laminarin (LAM) or (iii) with 50% trifluoroethanol (TFE) (a known helix-inducing solvent). The spectra were measured at room temperature in a 1-mm-path-length quartz cell. The scanning speed was 10 nm/min (180 to 260 nm), and each spectrum was the average of five scans.
Fig 3 CD spectra of Hst5, P113, di-18Hc and hybrid peptides. This study was performed with one concentration (200 μg/ml) of each peptide in various buffers: 10 mM sodium phosphate buffer (Red line), 50% TFE in phosphate buffer (green line) and 20 mg of laminarin in phosphate buffer.

C. tropicalis = experiment: Broth dilution assay (MIC); format: cell-based, Candida tropicalis
Protocol: (§1) To determine the candidacidal activity of the peptides, we used Candida strains obtained from the Culture collection of antimicrobial resistant microbes at Seoul Women’s University in Korea. These included three Candida albicans (CCARM 14020, 14021, 14022), Candida guillermondi and Candida tropicalis. In addition, Candida albicans SC5413 was kindly provided by Dr Jeong-Yoon Kim at the Department of Microbiology & Molecular Biology, Chungnam University, Korea. Yeast were cultured overnight at 30°C in 10 ml of yeast extract-peptone-dextrose (YPD) broth (Qbiogene), then diluted in 10 ml of YPD broth to OD600 = 0.2 and grown for an additional 4 h with shaking at 30°C until OD600 = 0.8 in order to obtain mid-log phase cultures. The peptides (Hst 5, P113, HHP1, HHP2, PH1, PH2, di-PH1, di-PH2, WP1, di-WP2, di-15Hc and di-18Hc) in this study were synthesized by using standard solid-phase synthesis protocols and were purified by reversed-phase high-performance liquid chromatography at Anygen Inc. (Korea). FITC-labeled peptides (F-Hst5, F-P113, F-HHP1, F-di-PH2, F-di-WP2 and F-di-18Hc) were also synthesized by 6-aminohexnoic acid linker at Anygen (Korea) for confocal experiments.
The candidacidal activities of the peptides were tested by using standard microdilution plate assays, radial diffusion assays and broth dilution assay slightly modified from the procedure recommended by the National Committee for Clinical Laboratory Standards. For the candidacidal assays, C. albicans cells were grown in YPD medium and washed twice with 10 mM sodium phosphate buffer (NaPB; Na2HPO4, NaH2PO4, pH 7.4). The cells (1 x 10^6) were then mixed with different concentrations of peptides and incubated at 30°C with constant shaking for 60 min. For energy depletion experiments, cells were pre-incubated with 10 mM NaPB containing 5 mM NaN3 at 30°C for 60 min before the addition of peptides. The cell suspensions were diluted in 10 mM NaPB and aliquots of 500 cells were spread onto YPD agar plates then incubated for 24 h at 30°C to visualize the surviving colonies. Cell survival was expressed as a percentage of that for the control, and the loss of viability was calculated as [1 x (number of colonies from peptide-treated cells/number of colonies from control cells)] x 100. Candidacidal assays were performed in triplicate. For the radial diffusion assay, C. albicans cells were grown in YPD medium overnight and washed twice with 10 mM NaPB. […] The clear-zone diameters were measured to the nearest 0.1 mm and graphed against the peptide concentration. […] The numbers of yeasts were counted using a hemocytometer. […] The antifungal activities were evaluated after 24 h of incubation at 30°C by the observation of visible turbidity the wells. […]

C.albicans CCARM 14020 = format: cell-based, Candida albicans
Protocol: as §1
(§2) The candidacidal activities of the peptides were tested by using standard microdilution plate assays, radial diffusion assays and broth dilution assay slightly modified from the procedure recommended by the National Committee for Clinical Laboratory Standards. For the candidacidal assays, C. albicans cells were grown in YPD medium and washed twice with 10 mM sodium phosphate buffer (NaPB; Na2HPO4, NaH2PO4, pH 7.4). The cells (1 x 10^6) were then mixed with different concentrations of peptides and incubated at 30°C with constant shaking for 60 min. For energy depletion experiments, cells were pre-incubated with 10 mM NaPB containing 5 mM NaN3 at 30°C for 60 min before the addition of peptides. The cell suspensions were diluted in 10 mM NaPB and aliquots of 500 cells were spread onto YPD agar plates then incubated for 24 h at 30°C to visualize the surviving colonies. Cell survival was expressed as a percentage of that for the control, and the loss of viability was calculated as [1 x (number of colonies from peptide-treated cells/number of colonies from control cells)] x 100. Candidacidal assays were performed in triplicate. For the radial diffusion assay, C. albicans cells were grown in YPD medium overnight and washed twice with 10 mM NaPB. Washed yeast-phase C. albicans cells (1 x 10^6 CFU) were trapped in thin underlay gels containing 9 mM sodium phosphate, 1 mM sodium citrate buffer, 1% (wt/vol) agarose (A6013; Sigma), and 0.3 mg of Sabouraud dextrose broth (Difco)/ml. After incubation at 37°C for 3 h, a 10 ml overlay gel of 1% agarose and 6% Sabouraud dextrose broth was poured on the underlay gel and then the plates were incubated overnight at 37°C. The clear-zone diameters were measured to the nearest 0.1 mm and graphed against the peptide concentration. Zone diameters were expressed in units (0.1 mm = 1 unit). For the broth dilution assay, the Candida strains were cultured in LYM broth for 18 h at 30°C. The numbers of yeasts were counted using a hemocytometer. Stock peptide solutions were prepared to a concentration of 320 μg/ml in distilled water, and were then serially diluted twofold, to 5 μg/ml. 100 μl aliquots of the diluted culture media containing candida cells (1 x 10^3) were dispensed into the wells of 96-well polypropylene microtiter plates (Costar 3879, Corning, NY), to which peptide solution (11 μl) was then added. In the experiments conducted to assess the candidacidal activity of peptides in the presence of salt, we used LYM supplemented with 150 mM NaCl for the culture medium, which was mixed with the peptide solution. The antifungal activities were evaluated after 24 h of incubation at 30°C by the observation of visible turbidity the wells. […]

C.albicans CCARM 14022 = format: cell-based, Candida albicans
Protocol: as §1, §2

C.albicans CCARM 14021 = format: cell-based, Candida albicans
Protocol: as §1, §2

C.albicans SC5413 = format: cell-based, Candida albicans
Protocol: as §1, §2

[2] = NaCl 150 mM, LYM supplemented with 150 mM NaCl, 24 h at 30°C

Secondary structure (%) Beta ([1]; solvent 10mM NaPB (pH 7.0)): 29.2% | Secondary structure (%) Random ([1]; solvent 10mM NaPB (pH 7.0)): 70.8% | Secondary structure (%) Turn ([1]; solvent 10mM NaPB (pH 7.0)): 0.0% | Secondary structure (%) Helix ([1]; solvent 10mM NaPB (pH 7.0), room temperature, average of five scans): 0.0% | Secondary structure (%) Beta ([1]; solvent 50% TFE in 10 mM NaPB): 32.9% | Secondary structure (%) Helix ([1]; solvent 50% TFE in 10 mM NaPB): 10.1% | Secondary structure (%) Random ([1]; solvent 50% TFE in 10 mM NaPB): 51.8% | Secondary structure (%) Turn ([1]; solvent 50% TFE in 10 mM NaPB): 5.2% | increase in MIC against C. tropicalis at 150 mM salt (C. tropicalis; 150 mM NaCl versus no salt): 2 fold | MICs (C.albicans CCARM 14020; CCARM 14020, 24 h): 1 to 2 µg/mL | MICs (C.albicans CCARM 14020; [2]): 32< μg/ml | MICs (C.albicans CCARM 14022; CCARM 14022, 24 h): 2 to 4 µg/mL | MICs (C.albicans CCARM 14022; [2]): 32< μg/ml | MICs (C.albicans CCARM 14021; CCARM 14021, 24 h): 1 to 2 µg/mL | MICs (C.albicans CCARM 14021; [2]): 32< μg/ml | MICs (C.albicans SC5413; [2]): 32< μg/ml | MICs (C.albicans SC5413; SC5413, 24 h): 1 to 2 µg/mL
SMILES: CC(C)C[C@H](NC(=O)CNC(=O)[C@H](Cc1c[nH]cn1)NC(=O)[C@H](Cc1c[nH]cn1)NC(=O)[C@H](CCCNC(=N)N)NC(=O)[C@H](CCCCN)NC(=O)[C@H](C)N)C(=O)N[C@@H](CC(N)=O)C(=O)N[C@@H](CSSC[C@H](NC(=O)[C@H](CC(N)=O)NC(=O)[C@H](CC(C)C)NC(=O)CNC(=O)[C@H](Cc1c[nH]cn1)NC(=O)[C@H](Cc1c[nH]cn1)NC(=O)[C@H](CCCNC(=N)N)NC(=O)[C@H](CCCCN)NC(=O)[C@H](C)N)C(=O)N[C@@H](C)C(=O)N[C@@H](CCCCN)C(=O)N[C@@H](Cc1ccccc1)C(=O)N[C@@H](Cc1c[nH]cn1)C(N)=O)C(=O)N[C@@H](C)C(=O)N[C@@H](CCCCN)C(=O)N[C@@H](Cc1ccccc1)C(=O)N[C@@H](Cc1c[nH]cn1)C(N)=O [di-PH2] (I: H-AKRHHGLNCAKFH-NH2 / II: H-AKRHHGLNCAKFH-NH2; disulfide I:9-II:9 (inferred); N-terminus assumed)
killing activities against C. tropicalis in 150 mM NaCl salt (C. tropicalis; 150 mM NaCl): retained

— article PMC4769088, “Antifungal Activity and Action Mechanism of Histatin 5-Halocidin Hybrid Peptides against Candida ssp” (PLoS ONE, 2016)
